Assay results taken from publication PMC6172315, “Relative Selectivity of Plant Cardenolides for Na^+/K^+-ATPases From the Monarch Butterfly and Non-resistant Insects” (Frontiers in Plant Science, 2018).
“Also recorded” adds a separate entry of the source.

Key:
[1] = target: S. gregaria-Na^+/K^+-ATPase (Schistocerca gregaria, UniProt A0A8E5JSN5); type: biochemical
Procedure: (§1) Danaus plexippus was caught in the field or purchased; E. core and S. gregaria were obtained commercially, with additional E. core from a laboratory colony. […] Briefly, brains dissected from butterflies stored at -80°C or recta from locusts were homogenized (individually or pooled) with an all glass grinder (Wheaton) in deionized water, frozen at -80°C, freeze-dried, and stored frozen until use. For in vitro assays, lyophilisates were dissolved in water, sonicated in an ultrasonic bath, and centrifuged to remove undissolved matter. All cardiac glycosides were tested at least with three biological replicates of Na^+/K^+-ATPase (i.e., Na^+/K^+-ATPase from genetically different specimens or pools of specimens).
(§2) Means of duplicate determinations (i.e., technical replicates) were used as data points. In consequence, each data point of a dose–response curve is the mean of at least three biological replicates based on two technical replicates, each. […] Here, technical replicates collected on the same 96-well plate were averaged and used as data points.
(§3) Stock solutions of cardiac glycosides, as well as pregnane glycosides, were prepared from crystalline compounds in DMSO. While concentrations of all other compounds were based on mass, calactin, and calotropin stock solutions were adjusted with HPLC using digitoxin as a reference.
(§4) Pairwise statistical comparisons of dose-response curves were carried out using the “compare datasets” option in OriginPro, which is based on an F-Test evaluating if the two curves are identical. Correlation analyses using log10-transformed IC50 values was also carried out with OriginPro. […] To analyze relative selectivity without a reference, we also plotted the fold differences between the IC50 values of individual cardenolides for non-adapted and adapted insect Na^+/K^+-ATPase and compared them to mammalian (lamb) Na^+/K^+-ATPase (Figure 2).

[2] = design: method as in Imai et al., 1965; conditions: ref Imai et al., 1965; cited from earlier work
[3] = target: D. plexippus-Na^+/K^+-ATPase (Danaus plexippus, UniProt K0G7C4); experiment: In vitro inhibition assay of D. plexippus Na+/K+-ATPase (phosphate release); type: biochemical; conditions: for inhibition of D. plexippus Na^+/K^+-ATPase compared to ouabain: DP, F-test comparison of entire dose-response curves with ouabain; for IC50: read-out: IC50 D. plexippus- Na^+/K^+-ATPase, Na+/K+-ATPase extracted from butterfly brains
Procedure: as §1, §2, §3, §4

physchem = conditions: for solubility: aqueous with cosolvent or surfactant or cyclodextrin, kinetic from dmso stock
Procedure: as §3

E. core-Na^+/K^+-ATPase = E. core-Na^+/K^+-ATPase (Euploea core, UniProt A0A5C0C9F5); experiment: In vitro inhibition assay of E. core Na+/K+-ATPase (phosphate release); type: biochemical
Procedure: as §1, §2, §3, §4

[4] = both dissolved in 25% DMSO, F-test of curves

Chain of E. core-Na^+/K^+-ATPase (A0A5C0C9F5 1-1013): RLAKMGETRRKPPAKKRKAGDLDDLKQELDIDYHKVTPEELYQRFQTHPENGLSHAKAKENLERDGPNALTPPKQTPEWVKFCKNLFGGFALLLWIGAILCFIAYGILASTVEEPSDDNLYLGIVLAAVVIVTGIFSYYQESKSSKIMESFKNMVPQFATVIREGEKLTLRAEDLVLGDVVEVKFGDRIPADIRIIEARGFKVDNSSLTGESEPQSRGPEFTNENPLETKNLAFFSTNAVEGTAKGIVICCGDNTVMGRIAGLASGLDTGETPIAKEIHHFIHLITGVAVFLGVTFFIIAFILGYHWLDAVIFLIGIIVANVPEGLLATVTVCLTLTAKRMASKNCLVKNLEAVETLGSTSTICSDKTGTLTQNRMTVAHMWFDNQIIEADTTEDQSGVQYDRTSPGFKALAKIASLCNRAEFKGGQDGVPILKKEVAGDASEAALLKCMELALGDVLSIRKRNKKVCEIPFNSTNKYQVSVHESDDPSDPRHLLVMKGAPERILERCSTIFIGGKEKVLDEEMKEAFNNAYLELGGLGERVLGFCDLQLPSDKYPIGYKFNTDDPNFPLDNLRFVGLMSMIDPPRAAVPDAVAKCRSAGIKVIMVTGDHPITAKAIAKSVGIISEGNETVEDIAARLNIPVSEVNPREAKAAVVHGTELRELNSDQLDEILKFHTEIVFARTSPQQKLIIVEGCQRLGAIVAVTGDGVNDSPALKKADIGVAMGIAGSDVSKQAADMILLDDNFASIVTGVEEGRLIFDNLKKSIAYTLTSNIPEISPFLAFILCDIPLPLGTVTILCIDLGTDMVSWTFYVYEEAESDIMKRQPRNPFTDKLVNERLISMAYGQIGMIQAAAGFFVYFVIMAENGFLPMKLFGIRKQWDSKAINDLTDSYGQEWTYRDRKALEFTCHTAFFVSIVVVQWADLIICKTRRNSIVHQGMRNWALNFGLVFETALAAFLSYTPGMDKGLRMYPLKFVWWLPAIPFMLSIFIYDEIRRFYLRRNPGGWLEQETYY
Chain of D. plexippus-Na^+/K^+-ATPase (K0G7C4 1-1009): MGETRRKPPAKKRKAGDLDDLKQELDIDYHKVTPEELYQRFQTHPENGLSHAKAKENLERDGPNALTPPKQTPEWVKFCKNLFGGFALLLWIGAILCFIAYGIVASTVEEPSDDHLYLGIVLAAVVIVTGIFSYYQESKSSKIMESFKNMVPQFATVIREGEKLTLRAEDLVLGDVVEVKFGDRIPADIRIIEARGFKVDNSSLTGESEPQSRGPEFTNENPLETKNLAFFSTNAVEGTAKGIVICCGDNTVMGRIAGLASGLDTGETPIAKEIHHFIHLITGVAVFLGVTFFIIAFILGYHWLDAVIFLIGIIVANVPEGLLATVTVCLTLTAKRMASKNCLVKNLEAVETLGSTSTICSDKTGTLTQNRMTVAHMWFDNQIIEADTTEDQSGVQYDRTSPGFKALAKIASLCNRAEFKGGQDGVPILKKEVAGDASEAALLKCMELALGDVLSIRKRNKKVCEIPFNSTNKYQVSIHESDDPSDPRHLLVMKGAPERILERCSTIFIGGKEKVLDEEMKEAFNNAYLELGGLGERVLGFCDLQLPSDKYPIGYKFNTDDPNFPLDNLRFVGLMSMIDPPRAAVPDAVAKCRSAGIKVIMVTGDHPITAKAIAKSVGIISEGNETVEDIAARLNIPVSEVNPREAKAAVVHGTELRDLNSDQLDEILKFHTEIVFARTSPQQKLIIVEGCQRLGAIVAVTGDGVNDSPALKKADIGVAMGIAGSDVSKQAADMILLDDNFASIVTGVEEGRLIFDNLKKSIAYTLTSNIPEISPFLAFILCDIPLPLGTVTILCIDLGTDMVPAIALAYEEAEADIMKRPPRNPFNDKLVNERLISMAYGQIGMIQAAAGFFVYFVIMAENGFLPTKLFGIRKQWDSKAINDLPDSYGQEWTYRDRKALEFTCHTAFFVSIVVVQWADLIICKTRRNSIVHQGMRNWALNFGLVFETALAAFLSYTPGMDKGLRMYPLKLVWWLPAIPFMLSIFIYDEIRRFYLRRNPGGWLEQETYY
Chain of S. gregaria-Na^+/K^+-ATPase (A0A8E5JSN5 1-1039): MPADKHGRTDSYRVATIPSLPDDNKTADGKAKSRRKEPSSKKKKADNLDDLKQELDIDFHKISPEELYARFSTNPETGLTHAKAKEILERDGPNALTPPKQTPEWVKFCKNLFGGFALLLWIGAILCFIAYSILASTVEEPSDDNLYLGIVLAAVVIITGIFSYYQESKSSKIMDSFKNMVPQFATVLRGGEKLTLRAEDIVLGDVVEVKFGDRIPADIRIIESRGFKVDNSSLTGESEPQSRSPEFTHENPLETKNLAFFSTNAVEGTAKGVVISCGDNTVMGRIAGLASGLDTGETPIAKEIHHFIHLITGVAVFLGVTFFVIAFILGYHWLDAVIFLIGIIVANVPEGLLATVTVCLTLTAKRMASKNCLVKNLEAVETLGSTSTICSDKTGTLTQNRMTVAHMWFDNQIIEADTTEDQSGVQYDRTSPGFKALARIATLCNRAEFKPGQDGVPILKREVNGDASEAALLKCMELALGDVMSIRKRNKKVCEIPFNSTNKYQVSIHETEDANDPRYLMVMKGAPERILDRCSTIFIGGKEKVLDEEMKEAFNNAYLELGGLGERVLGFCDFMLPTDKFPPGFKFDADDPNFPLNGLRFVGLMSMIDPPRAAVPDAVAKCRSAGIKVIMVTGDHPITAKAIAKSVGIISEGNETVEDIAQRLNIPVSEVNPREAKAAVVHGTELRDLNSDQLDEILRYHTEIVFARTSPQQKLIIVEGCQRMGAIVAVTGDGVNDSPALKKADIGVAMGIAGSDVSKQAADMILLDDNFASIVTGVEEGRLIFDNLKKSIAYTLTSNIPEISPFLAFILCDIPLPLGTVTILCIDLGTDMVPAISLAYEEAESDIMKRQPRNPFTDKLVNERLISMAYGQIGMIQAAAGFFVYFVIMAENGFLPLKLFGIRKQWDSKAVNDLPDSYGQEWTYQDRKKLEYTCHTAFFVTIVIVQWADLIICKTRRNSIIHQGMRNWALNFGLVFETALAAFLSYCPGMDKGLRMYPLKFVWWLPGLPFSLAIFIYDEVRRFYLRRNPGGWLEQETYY

Compound	inhibition of S. gregaria-Na^+/K^+-ATPase (in words) ([1]; Supplementary Figure 2)	cardiotonic activity in vertebrates [2]	inhibition of S. gregaria Na^+/K^+-ATPase compared to ouabain ([1]; SG, F-test comparison of entire dose-response curves with ouabain)	IC50 ([1]; read-out: IC50 S. gregaria- Na^+/K^+-ATPase, Na+/K+-ATPase extracted from locust recta) [µM]	inhibition of D. plexippus Na^+/K^+-ATPase compared to ouabain [3]	IC50 [3] [µM]	solubility (physchem) [µM]	inhibition of E. core Na^+/K^+-ATPase compared to ouabain (E. core-Na^+/K^+-ATPase; EC, F-test comparison of entire dose-response curves with ouabain)	inhibition of E. core Na^+/K^+-ATPase compared to 5β equivalent digitoxigenin (E. core-Na^+/K^+-ATPase; [4])	IC50 (E. core-Na^+/K^+-ATPase; read-out: IC50 E. core- Na^+/K^+-ATPase, Na+/K+-ATPase extracted from butterfly brains) [µM]	inhibition of D. plexippus Na^+/K^+-ATPase compared to 5β equivalent digitoxigenin [3, 4]	solubility compared to 5-β-isomer digitoxigenin (physchem; ambient conditions)
CO[C@@H]1C[C@H](O[C@H]2CC[C@@]3(C)[C@H](CC[C@@]45O[C@@]46CC[C@H](C4=CC(=O)OC4)[C@@]6(C)CC[C@H]35)C2)O[C@H](C)[C@@H]1O [adynerin]	lack of inhibition; also recorded: failed to inhibit	lack cardiotonic activity										
CO[C@H]1C[C@H](O[C@H]2CC[C@@]3(C)[C@H](CC[C@@H]4[C@@H]3CC[C@]3(C)[C@@H](C5=CC(=O)OC5)[C@@H](OC(C)=O)C[C@]43O)C2)O[C@@H](C)[C@@H]1O [oleandrin]			= ouabain; F2,6 = 2.24, p = 0.19	0.834	> ouabain; F2,6 = 252.64, p < 0.001	3.68	< 100					
CC12CCC(O)CC1CCC1C2CCC2(C)C(C3=CC(=O)OC3)CCC12O (stereo not drawn) [uzarigenin]					> ouabain; F2,6 = 5.73, p = 0.04	16	< 100	< ouabain; F2,6 = 53.30, p < 0.001	no difference	4.58	no difference	at least three to four times lower; also recorded: strongly reduced
